The text below walks through data of patent US10010560B2, “Small molecule HSP70 inhibitors” (THE TRUSTEES OF THE UNIVERSITY OF PENNSYLVANIA, priority 2014, dated 2018).

Like-named read-outs stand apart in the source and are kept apart here.

For one data set, the target named is T1, ADP-DnaK (WT, aa 1-638) (Escherichia coli, UniProt P0A6Y8).
T1 construct: Full-length recombinant proteins of HSP70 (aa 1-641) as well as DnaK (aa 1-638); His6 (N); made in house; host or cells: E. coli BL21 Star (DE3)
Kind of data set: ITC binding to ADP-bound full-length DnaK. Set-up: species or system E. coli.

For a further data set, the target named is T2, HSP70 (Homo sapiens, UniProt P0DMV8, E110D).
T2 construct: His6 (N); made in house; host or cells: E. coli BL21 Star (DE3)
Kind of data set: ITC of HSP70 preincubated with competing compound. Format: binding. The conditions noted are these: ITC competition. From the text: FIGS. 3A-3L illustrate that PET-16 binds directly to ADP-bound HSP70 and DnaK. Specifically, FIGS. 3A-3H are isothermal calorimetric titration (ITC) assays of the indicated compounds (NRLLLTG—SEQ ID NO: 7, PES or PET-16) with purified HSP70-ADP, DnaK-ADP or HSP70-ATP proteins. The data are representative of three independent experiments. FIGS. 3I and 3J are ITC assays for the interaction between HSP70 (aa 386-616 of SEQ ID NO: 2) protein and PET-16 (I) or TPP (J). Binding constants (Kd values) are shown (average and s.d. from three independent experiments). PET-16 also binds directly to the purified, full-length, nucleotide-free HSP70 protein, with a reported dissociation constant of 5.2+/−0.1 micromolar, which is the average and standard deviation from two independent experiments (data not shown). FIG. 3K is ITC assay of HSP70 protein preincubated with ADP and PES for 1 h. The mixture was titrated into the sample cell containing PET-16. The data are representative of three independent ITC experiments. FIG. 3L are western blots of human lung carcinoma (H1299) cells that were pretreated with DMSO or excess (8×) PET-16 for 1 h prior to the addition of 20 μM B-PES for 5 h and examined for the expression of HSP70 or BCL-xL. B-PES-containing complexes were captured by Avidin resins and immunoblotted either with anti-HSP70 or anti-BCL-xL antibody. […]

Data set [1] concerns primary melanocytes and nontransformed human fibroblasts (IMR90). Description: Cellular ATP levels (AlamarBlue assay) in normal cells. Format: cell-based. From the text: FIGS. 5A-5F illustrates that PET-16 leads to loss of mitochondrial protein Cyclophilin D and impairs bioenergetics in tumor cells. FIGS. 5A-5D are western blots of HSP70, which is present at mitochondria of tumor H1299 cells but not in normal tissue, such as liver. The constitutively expressed 70 kDa family members, HSC70 and GRP75, are present in mitochondria of normal cells. Equal amounts of whole cell (WC)-, cytosolic (cyto)-, and mitochondrial (mito)-extracts prepared from cell lines H1299 (A, C) and MIA PaCa-2 (B) or normal (liver) cells (C, D) were examined by western blot analysis for the presence of the proteins indicated. […] Decreases of AlamarBlue® fluorescence, indicative of mitochondrial damage, are noted in PET-16-treated tumor cells (melanoma tumor cell line WM88 (-), melanoma tumor cell line WM3000 (×), melanoma tumor cell line WM852 (*), human melanoma 451 Lu cells (●), and melanoma tumor cell line WM989 (|), but not normal cells (nontransformed human fibroblasts (IMR90-♦) and primary melanocytes (▪)). Values are normalized to the vehicle-treated cells. Error bars represent standard deviation (s.d.) of four independent experiments.
For orientation: The colour change of resazurin is a common sign of viable cells or microbes.

Data set [2] deals with human melanoma cell lines. Description: MTT assays of human melanoma cell lines. The conditions noted are these: several melanoma cell lines, 72 h. Format: cell-based. How it is done: FIGS. 2A-2D illustrate the cytotoxicity of PET-16 to human tumor cells and its inhibition on E. coli growth. FIG. 2A is a line graph with data obtained from MTT assays of human melanoma cell lines treated with the indicated concentrations of PES or PET-16 for 72 h. The corresponding cell survival is normalized to vehicle (DMSO) treatment. Average and standard deviation (s.d.) from three independent experiments are shown. FIG. 2B are bar graphs of human melanoma (A875) cells and nontransformed human (IMR90) fibroblasts that were treated with DMSO, 10 μM PES or 10 μM PET-16 for 24 h. […] FIG. 2C is a line graph illustrating the growth of E. coli DH5α treated with different concentrations of PES or PET-16 for 6 h at 43° C. Error bars represent the s.d. of four independent experiments. FIG. 2D is a bar graph illustrating the growth of E. coli DH5α treated with DMSO, 30 μM PET-16 or 30 μM TPP for 6 h at 43° C. Error bars represent the s.d. of four independent experiments.
MTT assays of human melanoma cell lines, as indicated, treated with the indicated concentration of PET-16 for 72 hours. The corresponding cell survival is normalized to vehicle (DMSO) treatment. Average and standard deviation (s.d.) from three independent experiments are shown.
Background: Formazan colour is commonly taken as a measure of viable cells.

T2 sequence (P0DMV8 whole entry E110D): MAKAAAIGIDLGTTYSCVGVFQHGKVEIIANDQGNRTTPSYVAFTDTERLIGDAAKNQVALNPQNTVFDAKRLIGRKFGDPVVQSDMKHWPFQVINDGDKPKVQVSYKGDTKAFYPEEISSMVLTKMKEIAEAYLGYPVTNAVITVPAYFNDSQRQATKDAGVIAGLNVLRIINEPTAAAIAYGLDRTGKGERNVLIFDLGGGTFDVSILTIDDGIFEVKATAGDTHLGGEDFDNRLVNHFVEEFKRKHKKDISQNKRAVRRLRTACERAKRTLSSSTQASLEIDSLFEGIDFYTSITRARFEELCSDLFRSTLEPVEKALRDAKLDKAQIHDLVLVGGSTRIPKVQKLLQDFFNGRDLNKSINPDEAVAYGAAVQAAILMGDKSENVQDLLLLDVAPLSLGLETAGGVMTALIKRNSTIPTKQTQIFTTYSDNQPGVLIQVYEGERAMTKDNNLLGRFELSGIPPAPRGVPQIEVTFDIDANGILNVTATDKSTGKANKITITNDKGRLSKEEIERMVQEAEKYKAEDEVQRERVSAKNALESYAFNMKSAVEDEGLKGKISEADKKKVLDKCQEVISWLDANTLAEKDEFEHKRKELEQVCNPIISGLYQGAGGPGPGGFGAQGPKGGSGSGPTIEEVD
T1 sequence (P0A6Y8 whole entry, the tested form may be a part): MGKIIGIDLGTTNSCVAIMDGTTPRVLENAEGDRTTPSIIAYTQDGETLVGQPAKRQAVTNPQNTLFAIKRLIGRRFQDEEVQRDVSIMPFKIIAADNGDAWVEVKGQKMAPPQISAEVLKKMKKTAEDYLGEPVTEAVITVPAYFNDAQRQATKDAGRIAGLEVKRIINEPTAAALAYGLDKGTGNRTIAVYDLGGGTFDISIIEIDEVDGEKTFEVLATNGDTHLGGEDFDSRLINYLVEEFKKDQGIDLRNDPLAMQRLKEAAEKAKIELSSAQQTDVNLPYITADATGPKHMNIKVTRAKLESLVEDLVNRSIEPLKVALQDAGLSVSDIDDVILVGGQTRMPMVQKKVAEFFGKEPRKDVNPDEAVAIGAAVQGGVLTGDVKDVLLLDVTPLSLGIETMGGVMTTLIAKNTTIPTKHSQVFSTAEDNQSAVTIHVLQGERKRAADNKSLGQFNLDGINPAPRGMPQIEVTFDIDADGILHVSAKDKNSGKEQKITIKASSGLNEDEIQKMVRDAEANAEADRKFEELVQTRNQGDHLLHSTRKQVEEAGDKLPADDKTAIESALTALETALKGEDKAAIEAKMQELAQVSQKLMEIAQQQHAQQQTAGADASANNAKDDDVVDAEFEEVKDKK
Experimental for ADP-DnaK (WT, aa 1-638): For isothermal titration calorimetry studies, all HSP70 and DnaK variants were dialyzed extensively against the buffers as noted below under the section entitled “Isothermal Titration calorimetry Studies”. The dialyzed proteins were subsequently microcentrifugated at 15,000×g for 5 min at 4° C. and aliquots of the soluble proteins were stored at −80° C.
All ITC experiments were performed using a MicroCal VP-ITC isothermal titration calorimeter (MicroCal). Both full-length HSP70 and DnaK proteins and DnaK (aa 393-507) proteins were prepared in 1 mM Tris-HCl (pH 7.4) buffer containing 3% dimethylsulfoxide (DMSO). The HSP70 (aa 386-616) protein was prepared in buffer containing 3% DMSO and 10 mM Tris-HCl, pH 7. The syringe was loaded with purified protein in either 1 mM Tris-HCl (pH 7.4) buffer containing 3% DMSO or 10 mM Tris-HCl (pH 7) buffer containing 3% DMSO. […] All solutions were degassed for 5 min.
The titrations involving the full-length purified proteins were performed at 25° C. with injection volumes of 12 μL and a spacing of 300 s. The titrations involving the purified HSP70 (aa 386-616) and DnaK (aa 393-507) were performed at 42° C. with injection volumes of 12 μL and a spacing of 300 s. Heat from the pre-injection was not used during fitting. […]

By Kd is commonly meant the constant that tells how readily two partners part at equilibrium. Turning to `NS(=O)(=O)C#Cc1ccccc1` [PES, 2-Phenylethynesulfonamide, reference compound], the Kd on ADP-DnaK (WT, aa 1-638) (ITC, wild-type full-length ADP-bound DnaK, read-out: Kd) is approximately 6.8 µM. For the same compound, at HSP70, the “binding to HSP70 after pre-incubation with the other compound (PES / PET-16)” value is on record as “impaired”.
One may read the IC50 as the midpoint of a concentration-inhibition curve. Low values mean higher potency, high ones lower potency. `C(#C[P+](c1ccccc1)(c1ccccc1)c1ccccc1)c1ccccc1.[Br-]` [PET-16, triphenyl(phenylethynyl)phosphonium bromide] registered a Kd at ADP-DnaK (WT, aa 1-638) of approximately 6 µM. Besides, the “binding to HSP70 after pre-incubation with the other compound (PES / PET-16)” value at HSP70 was “markedly reduced”. For the same compound, in data set [1], the “total ATP levels” value was “no decrease”. For the same compound, in data set [2], the half-maximal inhibitory concentration (IC50) lay within 0.5 to 1.5 µM.
